{
  "source": "paper PMC10252203",
  "about": "“Tyrosinase Inhibitory Peptides from Enzyme Hydrolyzed Royal Jelly: Production, Separation, Identification and Docking Analysis” (Foods, 2023)",
  "molecules": {"B1": {"name": "MRJP-4: major royal jelly protein (protein, UniProt Q17061 16-464, looked up)", "Major royal jelly protein 4": "QNIRGGVVRENSSGKNLTNTLNVIHKWKYLDYDFDNDERRQAAIQSGEYDRTKNYPLDVDQWHNKTFLAVIRYNGVPSSLNVVSDKTGNGGRLLQPYPDWSFAKYEDCSGIVSAHKIAIDEYERLWVLDSGLVNNTQPMCSPKLFAFDLNTSQLLKQVEIPHDVATTGKGELVSLTVQAMDSTNTMVYMVDNKNTLIIYQNADDSFHRLSSHTLNHNSDKMSDQQENLTLKEVDNKVYGMALSPVTHNLYYNSPSSENLYYVNTESLMKSENQGNDVQYERVQDVFDSQLTVKAVSKNGVLLFGLANNTLSCWNEHQSLDRQNIDVVARNEDTLQMVVSMKIKQNVPQSGRVNNTQRNEYLLALSDRNQNVLNNDLNLEHVNFQILGANVNDLIRNSRCANFDNQDNNHYNHNHNQARHSSKSDNQNNNQHNDQAHHSSKSNNRHNNND"}, "B2": {"name": "MRJP-2: major royal jelly protein (protein, UniProt O77061 18-452, looked up)", "Major royal jelly protein 2": "AIVRENSPRNLEKSLNVIHEWKYFDYDFGSEERRQAAIQSGEYDHTKNYPFDVDQWRDKTFVTILRYDGVPSTLNVISGKTGKGGRLLKPYPDWSFAEFKDCSKIVSAFKIAIDKFDRLWVLDSGLVNRTVPVCAPKLHVFDLKTSNHLKQIEIPHDIAVNATTGKGGLVSLAVQAIDLANTLVYMADHKGDALIVYQNADDSFHRLTSNTFDYDPRYAKMTIDGESFTLKNGICGMALSPVTNNLYYSPLASHGLYYVNTAPFMKSQFGENNVQYQGSEDILNTQSLAKAVSKNGVLFVGLVGNSAVGCWNEHQSLQRQNLEMVAQNDRTLQMIAGMKIKEELPHFVGSNKPVKDEYMLVLSNRMQKIVNDDFNFDDVNFRILGANVKELIRNTHCVNNNQNDNIQNTNNQNDNNQKNNKKNANNQKNNNQNDN"}},
  "key": {"TYR [1]": {"molecular_target": "T1, TYR (Agaricus bisporus, UniProt C7FF04)", "T1 construct": "purchased Shanghai Yuanye Bio-Technology Co., Ltd. (Shanghai, China)", "T1 sequence (C7FF04 2-392)": "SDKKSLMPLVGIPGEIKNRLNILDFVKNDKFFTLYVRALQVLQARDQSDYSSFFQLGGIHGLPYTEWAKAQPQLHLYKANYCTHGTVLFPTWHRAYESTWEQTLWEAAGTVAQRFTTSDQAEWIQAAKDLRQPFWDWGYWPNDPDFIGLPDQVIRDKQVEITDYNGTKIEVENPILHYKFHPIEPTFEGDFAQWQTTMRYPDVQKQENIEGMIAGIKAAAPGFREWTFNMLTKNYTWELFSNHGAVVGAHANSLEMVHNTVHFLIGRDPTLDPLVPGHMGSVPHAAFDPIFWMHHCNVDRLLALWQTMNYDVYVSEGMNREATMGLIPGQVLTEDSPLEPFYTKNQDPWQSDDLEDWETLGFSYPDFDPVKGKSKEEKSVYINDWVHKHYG", "set-up": "method as in 2 sources, one per row (each row's own in cited_ref): ref [48] = [48]; PMID 34313364; doi:10.1002/ardp.202100204; 48. Krobthong S. Yingchutrakul Y. Samutrtai P. Choowongkomon K. The C-terminally shortened analogs of a hexapeptide derived from Lingzhi hydrolysate with enhanced tyrosinase-inhibitory activity Arch. ||| ref [16],[17] = [16]; PMID 33459057; doi:10.1080/10408398.2021.1871724; 16. Peng Z.Y. Wang G.C. Zeng Q.H. Li Y.F. Liu H.Q. Wang J.J. Zhao Y. A systematic review of synthetic tyrosinase inhibitors and their structure-activity relationship Crit. Rev. Food Sci. Nutr. 2021 62 || [17]; PMID 35603815; doi:10.1111/1750-3841.16160; 17. Xue W. Liu X. Zhao W. Yu Z. Identification and molecular mechanism of novel tyrosinase inhibitory peptides from collagen J. Food Sci. 2022 87 2744 2756 10.1111/1750-3841.16160 35603815", "details": "ref [16],[17]; cited from earlier work", "source_text": "Bioactive peptides are functional peptide fragments produced during the hydrolysis, cleavage, or maturation of proteins, and their relative molecular mass is usually less than 6000 Da."}, "[2]": {"details": "ref [47]; cited from earlier work", "source_text": "Guo isolated and purified 29 antioxidant peptides from RJ and verified their antioxidant activity."}, "TYR [3]": {"molecular_target": "T1, TYR", "experiment": "TYR inhibitory activity (L-DOPA oxidation)", "assay_type": "biochemical", "procedure": "Determination and calculation methods of TYR inhibitory activity were referred to the detection method of Ji and modified slightly. Briefly, the TYR was dissolved to prepare solutions using 0.05 M phosphate buffer saline (pH 6.8). Then, the mixed 40 μL of ERJ, 2 U/mL 100 μL of TYR, and 1.0 mmol/L 100 μL of L-DOPA were added in a 96-well plate, and the absorbance at 475 nm was measured immediately after 10 s and recorded as A1. The reaction system was incubated for 190 s at 25 °C and measured again and recorded as A2. We repeated the above steps by replacing the ERJ with buffer and measuring the absorbance value after 10 s, recorded as A3, and the absorbance value after 190 s as A4. The inhibition rate of ERJ on TYR was calculated according to the following equation:(1) Inhibition percentage (%)=(1−ΔA/ΔB) × 100% where, ΔA = A2 − A1, ΔB = A4 − A3."}, "[4]": {"tested_on": "fungus, yeast, and bacteria", "details": "ref [45],[46]; cited from earlier work"}},
  "note": "“Also recorded” adds a separate entry of the source. Ends that are not written are not given here.",
  "data": [
    {"molecule": "OC[C@H]1O[C@@H](Oc2ccc(O)cc2)[C@H](O)[C@@H](O)[C@@H]1O", "note": "[arbutin]", "values": [
      {"measurement": "inhibitory effect on TYR activity (in words), literature", "setting": "TYR [1]", "result": "strong inhibitory effects"}
    ]},
    {"molecule": "Oc1ccc(O)cc1", "note": "[hydroquinone]", "values": [
      {"measurement": "inhibitory effect on TYR activity (in words), literature", "setting": "TYR [1]", "result": "strong inhibitory effects"}
    ]},
    {"molecule": "Arg-Tyr", "values": [
      {"measurement": "free radical scavenging ability", "setting": "[2]", "result": "strong free radical scavenging ability"}
    ]},
    {"molecule": "IIPFIF [IIPFIF]", "values": [
      {"measurement": "TYR inhibitory activity (in words)", "setting": "TYR [3]", "result": "maximum activity; also recorded: highest of the three peptides"}
    ]},
    {"molecule": "ILFTLL [ILFTLL]", "values": [
      {"measurement": "TYR inhibitory activity (in words)", "setting": "TYR [3]", "result": "lowest activity; also recorded: lowest of the three peptides"}
    ]},
    {"molecule": "Tyr-Tyr", "values": [
      {"measurement": "free radical scavenging ability", "setting": "[2]", "result": "strong free radical scavenging ability"}
    ]},
    {"molecule": "B1", "values": [
      {"measurement": "antibacterial properties", "setting": "[4]", "result": "have antibacterial properties"}
    ]},
    {"molecule": "B2", "values": [
      {"measurement": "antibacterial properties", "setting": "[4]", "result": "have antibacterial properties"}
    ]}
  ]
}
